This note sets out measurements from ChEMBL document CHEMBL5032495, “Discovery of Novel Tacrine-Pyrimidone Hybrids as Potent Dual AChE/GSK-3 Inhibitors for the Treatment of Alzheimer's Disease” (J Med Chem, 2021).

The inhibition is the drop in the measured response relative to a control, in per cent. As usually defined, the IC50 is the concentration needed to halve the response being measured. Read a low IC50 as higher potency.

Assay [1] deals with Glycogen synthase kinase-3 beta (Homo sapiens, UniProt P49841). Put plainly: Inhibition of human recombinant GSK-3beta using prephosphorylated polypeptide as substrate incubated for 30 mins in presence of ATP by Kinase-Glo luminescence assay relative to control. On the technique in general: Kinase-Glo measures the ATP left after a reaction by luminescence.
Glycogen synthase kinase-3 beta, sequence (P49841 whole entry, looked up): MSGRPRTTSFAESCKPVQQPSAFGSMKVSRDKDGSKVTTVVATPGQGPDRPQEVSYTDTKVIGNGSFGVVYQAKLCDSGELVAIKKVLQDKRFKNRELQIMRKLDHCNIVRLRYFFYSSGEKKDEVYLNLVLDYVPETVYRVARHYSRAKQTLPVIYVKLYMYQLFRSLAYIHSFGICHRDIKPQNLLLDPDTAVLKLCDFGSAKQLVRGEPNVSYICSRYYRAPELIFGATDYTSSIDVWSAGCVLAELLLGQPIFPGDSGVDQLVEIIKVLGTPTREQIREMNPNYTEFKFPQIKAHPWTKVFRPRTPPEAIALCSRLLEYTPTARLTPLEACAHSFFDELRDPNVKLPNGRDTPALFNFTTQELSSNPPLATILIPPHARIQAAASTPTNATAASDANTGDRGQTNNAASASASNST
In assay [2] the target is T1, Acetylcholinesterase (Mus musculus, UniProt P21836).
T1 sequence (P21836 whole entry): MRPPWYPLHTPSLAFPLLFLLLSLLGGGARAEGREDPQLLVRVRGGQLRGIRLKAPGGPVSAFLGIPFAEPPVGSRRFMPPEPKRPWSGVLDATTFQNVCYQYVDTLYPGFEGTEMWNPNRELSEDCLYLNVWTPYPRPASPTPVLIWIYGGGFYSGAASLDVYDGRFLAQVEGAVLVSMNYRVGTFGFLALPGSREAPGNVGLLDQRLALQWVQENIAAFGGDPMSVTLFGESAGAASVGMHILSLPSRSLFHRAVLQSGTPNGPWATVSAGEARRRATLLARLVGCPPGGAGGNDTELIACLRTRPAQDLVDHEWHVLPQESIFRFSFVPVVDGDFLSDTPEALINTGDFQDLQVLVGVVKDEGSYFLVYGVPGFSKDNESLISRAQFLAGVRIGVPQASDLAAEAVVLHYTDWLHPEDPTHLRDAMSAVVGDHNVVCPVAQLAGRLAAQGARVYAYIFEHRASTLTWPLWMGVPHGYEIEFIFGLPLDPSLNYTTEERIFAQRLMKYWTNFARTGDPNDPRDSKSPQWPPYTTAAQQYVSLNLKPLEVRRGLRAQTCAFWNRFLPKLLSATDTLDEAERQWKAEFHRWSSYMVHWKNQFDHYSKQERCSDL
In words: Inhibition of mouse AChE using acetylthiocholine iodide as substrate incubated for 20 mins by Ellman's method.

Some results are limits rather than exact numbers.

In the case of `Cn1c(NCCCCCCCNc2c3c(nc4ccc(F)cc24)CCCC3)nc(-c2ccncc2)cc1=O`, the inhibition in assay [1] was under 60%. The molecule also returned an IC50 in assay [2] of 1800 µM.
With `Cn1c(NCCNc2c3c(nc4ccc(Cl)cc24)CCCC3)nc(-c2ccncc2)cc1=O`, in assay [1], the inhibition was under 50%. Further, in assay [2], the concentration for half-maximal inhibition (IC50) worked out at 10.9 µM.
Consider `Cn1c(NCCNc2c3c(nc4ccc(Br)cc24)CCCC3)nc(-c2ccncc2)cc1=O`, for which, in assay [1], the inhibition was under 50%. The same molecule had a half-inhibitory concentration (IC50) in assay [2] of 15.8 µM.
On to `Cn1c(NCCNc2c3c(nc4cc(Cl)ccc24)CCCC3)nc(-c2ccncn2)cc1=O`, for which the inhibition in assay [1] was under 50%. The molecule also registered an IC50 in assay [2] of 0.42 µM.
As for `Cn1c(NCCNc2c3c(nc4cc(F)ccc24)CCCC3)nc(-c2ccncc2)cc1=O`, the inhibition in assay [1] is under 50%. Inhibition in assay [2] was half-maximal at 3.9 µM (IC50).
Taken in the same sequence, the figures for `Cn1c(NCCCCCCCNc2c3c(nc4cc(F)ccc24)CCCC3)nc(-c2ccncc2)cc1=O` were under 60% and 124 µM.
In the case of `Cn1c(NCCNc2c3c(nc4ccc(Cl)cc24)CCCC3)nc(-c2ccncn2)cc1=O`, in assay [1], the inhibition was under 50%. The IC50 in assay [2] was found to be 18.8 µM.
The matching figures for `Cc1ccc2c(NCCNc3nc(-c4ccncc4)cc(=O)n3C)c3c(nc2c1)CCCC3`: under 50% and 1.89 µM.
For `Cn1c(NCCCCCCNc2c3c(nc4cc(Br)ccc24)CCCC3)nc(-c2ccncc2)cc1=O`, the inhibition in assay [1] was under 60%. The molecule further gave a half-maximal inhibitory concentration (IC50) in assay [2] of 45 µM.
The matching figures for `Cn1c(NCCNc2c3c(nc4cc(C(F)(F)F)ccc24)CCCC3)nc(-c2ccncc2)cc1=O`: under 50% and 11.3 µM.
The matching figures for `Cn1c(NCCCNc2c3c(nc4ccccc24)CCCC3)nc(-c2ccncc2)cc1=O`: under 50% and 2.85 µM.
For `COc1ccc2c(NCCNc3nc(-c4ccncc4)cc(=O)n3C)c3c(nc2c1)CCCC3`, in assay [1], the inhibition is under 50%. Further, in assay [2], the IC50 amounted to 8.3 µM.
Turning to `Cn1c(NCCNc2c3c(nc4cc(F)ccc24)CCCC3)nc(-c2ccncn2)cc1=O`, in assay [1], the inhibition was under 50%. Besides, half-maximal inhibition in assay [2] (IC50) required 0.18 µM.
For the molecule `Cn1c(NCCCCCCCNc2c3c(nc4cc(Br)ccc24)CCCC3)nc(-c2ccncc2)cc1=O`, the inhibition in assay [1] is under 60%. The same molecule came in with an IC50 in assay [2] of 39 µM.
As to `Cn1c(NCCCCCCNc2c3c(nc4ccc(F)cc24)CCCC3)nc(-c2ccncc2)cc1=O`, the inhibition in assay [1] was under 60%. In assay [2], the IC50 is 2420 µM.
The matching figures for `Cc1ccc2c(NCCCCCCNc3nc(-c4ccncc4)cc(=O)n3C)c3c(nc2c1)CCCC3`: under 60% and 239 µM.
Consider `Cn1c(NCCNc2c3c(nc4ccc(F)cc24)CCCC3)nc(-c2ccncc2)cc1=O`, for which the inhibition in assay [1] is under 50%. The molecule further came in with an IC50 in assay [2] of 0.37 µM.
The matching figures for `COc1ccc2c(NCCNc3nc(-c4ccncn4)cc(=O)n3C)c3c(nc2c1)CCCC3`: under 50% and 23 µM.
The matching figures for `COc1ccc2nc3c(c(NCCNc4nc(-c5ccncc5)cc(=O)n4C)c2c1)CCCC3`: under 50% and 15.7 µM.
The matching figures for `Cn1c(NCCCCCCCNc2c3c(nc4cc(Cl)ccc24)CCCC3)nc(-c2ccncc2)cc1=O`: under 60% and 37.5 µM.
`Cc1ccc2c(NCCCCCCCNc3nc(-c4ccncc4)cc(=O)n3C)c3c(nc2c1)CCCC3`: the inhibition in assay [1] was under 60%. In addition, it took 145 µM to reach half-maximal inhibition in assay [2] (IC50).
As to `COc1ccc(CNC(=O)Nc2ncc([N+](=O)[O-])s2)cc1`, the IC50 in assay [2] was over 40 µM.
Consider `Cn1c(NCCCCCCNc2c3c(nc4cc(F)ccc24)CCCC3)nc(-c2ccncc2)cc1=O`, for which the inhibition in assay [1] is under 60%. This molecule also returned a half-inhibitory concentration (IC50) in assay [2] of 163 µM.
Take `Cc1ccc2nc3c(c(NCCNc4nc(-c5ccncc5)cc(=O)n4C)c2c1)CCCC3`: the inhibition in assay [1] is under 50%. The molecule also displayed an IC50 in assay [2] of 20 µM.
The matching figures for `Cn1c(NCCNc2c3c(nc4cc(Br)ccc24)CCCC3)nc(-c2ccncc2)cc1=O`: under 50% and 0.44 µM.
